From patent US10526416B2, “Anti-HER3 antibodies and uses of same” (Yeda Research and Development Co. Ltd., priority 2014, dated 2020)

B1: NG140: anti-HER3 mAb; light chain CDRs SEQ ID NOs: 13-15, heavy chain CDRs 16-18 (antibody, V domains shown)
VH: QVQLKESGPGLVKPSQSLSLTCSVTGYSITSGYYWNWIRQFPGNKLEWMGSIYYDGSNNYNPSLKNRISVTRDTSKNQFFLKLNSVTTEDTATYYCARDYDVGYAMDYWGQGASVTVSS
VL: DIVLTQSSSYLSVSLGGRVTITCKASDHINNWLAWYQQKPGNAPRLLISGATSLETGVPSRFSGSGSGKDYTLSITSLQTEDVATYYCQQYWSIPWTFGGGTKLEIK
modifications: VH chain of NG140 polypeptide; VL chain of NG140 polypeptide

How the values were obtained:
[1] = system: PC9ER-AZDR cells; assay: MTT assay on PC9ER-AZDR cells; details: 72 hours treatment
[2] = system: H1975 NSCLC cells; assay: H1975 NSCLC tumor growth in CD1-nu/nu mice; format: in vivo
[3] = system: EGFR phosphorylation; assay: Western blot of EGFR phosphorylation in PC9ER-AZDR cells; format: cell-based, human; details: 6 hours, 1 μM
Method: Cells were grown under specified conditions or treated as indicated. Following the cells were washed twice with cold PBS and scraped into lysis buffer [50 mM Hepes (pH 7.5), 10% glycerol, 150 mM NaCl, 1% Triton X-100, 1 mM EDTA, 1 mM EGTA, 10 mM NaF, 0.1 mM Na3VO4, and a complete protease inhibitor cocktail]. Thereafter, lysates were centrifuged at 14,000 g for 15 minutes at 4° C. The supernatant was used for subsequent procedures. Western blot analyses were conducted following protein separation using gel electrophoresis and transfer to nitrocellulose membranes. Immunoblotting was performed according to the antibody manufacturers' recommendation. Blocking was done using 5% milk in PBST (0.5% Tween20 Sigma Cat#P9416). Antibody binding to membrane blots was detected using horseradish peroxidase-secondary antibodies (Jackson ImmunoResearch Laboratories), followed by treatment with ECL Western blotting detection reagents (GE Healthcare).

[4] = system: BxPC3 cells; assay: MTT assay on BxPC3 cells in culture; format: cell-based, human; details: 3 days
Method: (§1) FIGS. 15A-F show the effects of a mixture of two anti HER3 mAbs, in vivo on BxPC3 cell xenografts and in vitro. (FIGS. 15A-C) CD1-Nude mice were grafted subcutaneously with 5×10^6 BxPC3 cells. Once tumors became palpable (after 13 days), the mice were randomized into group of 8 mice and treated every 3 days for 5 weeks. The control group (CTRL) was injected intra-peritoneally (IP) with 200 μl PBS. The other groups were treated with mAb alone or in combination at a final concentration of 0.2 mg/0.2 ml of PBS per mouse. The mice were weighted once a week and the tumors measured twice a week. An average tumor size of 7-8 mice (+/−SEM) is shown. (FIGS. 15D-F) Proliferation assays using MTT were performed on BxPC-3. 5,000 cells per well were plated the day before and treated for 72 h with the indicated mAb treatment. Decreasing concentrations of the indicated mAb (alone or in combination) were used in medium supplemented with 1% serum and NRG (10 ng/ml).
To determine if the combination of NG33 mAb with another anti-HER3 mAb is more efficient than using NG33 alone, the combination of two mAbs, NG33 and XC252, was tested on several tumor cell lines, which were grafted subcutaneously (gastric: N87, lung: A549, pancreatic: BxPC3, ovarian: OVCAR-5, and head and neck: CAL-27, FIG. 14). This pilot was performed with 3 mice per group. Mice were injected twice a week with the mAb combination or with PBS. The best responder of these in vivo models for solid tumor growth was the BxPC3 xenograft model. […] This experiment was performed on 7 to 8 mice per group. The mice were treated every 3 days with PBS, each mAb alone or a mAb combination, for 5 weeks (0.2 mg/injection). […] In order to reinforce the in vivo data, the cytotoxicity of each mAb alone or in combination with NG33 was tested on BxPC3 cells in culture (FIGS. 15D, 15E and 15F). Decreasing concentrations of mAb were used and a MTT assay was performed following 3 days of treatment. […] On the contrary, XC252 used alone has a […] cytotoxic impact on BxPC3 proliferation leading to 60% inhibition of cell survival at high concentration.

[5] = system: BxPC3 xenografts; assay: BxPC3 cell xenografts in CD1-Nude mice; format: in vivo; details: 0.2 mg/injection IP every 3 days for 5 weeks, 7 to 8 mice per group
Method: as §1
All animal studies were approved by the Weizmann Institute's Review Board (IRB). Tumor bearing CD1/nude mice were randomized in groups of five-ten mice and injected subcutaneously in the right flank with cancer cells (3-5×10^6 per mouse depending on the cell line). mAbs were injected intraperitoneally at a total dose of 200 μg per mouse per injection, twice a week, for 5 weeks or until tumors reached the size of 1,500 mm^3. In experiments evaluating the effect of the TKI AZD-9291, Vehicle (Vehicle formulation: HPMC 0.5% (sigma Cat#56340), Tween80 0.1% (Sigma Cat #P8074 in water), Erlotinib at a dose of 50 mg/kg per injection, or AZD9291 at a dose of 1 or 5 mg/kg per injection were injected daily intraperitoneally. In one experiment (FIG. 16), mice were treated daily with Erlotinib at a dose of 50 mg/kg per injection until tumors reached a size of 800 mm^3 and only then were treated as indicated. Tumor volume and body weight were evaluated twice and once per week, respectively. Mice were euthanized when tumor size reached 1,500 mm^3. […] Survival of the tumor bearing mice was recorded and depicted by Kaplan-Meier analysis. […]

[6] = target: T1, IgB3 (Homo sapiens, UniProt P21860); assay: Antibody competition assay with Lumi4(Tb)-labeled NG33 on IgB3-coated plates; format: binding; details: NG33-K2 1 nM
T1 construct: To produce IgB3 (recombinant HER3 extracellular domain fused to a human IgG Fc domain); made in house
T1 sequence (P21860 20-643 limits assumed): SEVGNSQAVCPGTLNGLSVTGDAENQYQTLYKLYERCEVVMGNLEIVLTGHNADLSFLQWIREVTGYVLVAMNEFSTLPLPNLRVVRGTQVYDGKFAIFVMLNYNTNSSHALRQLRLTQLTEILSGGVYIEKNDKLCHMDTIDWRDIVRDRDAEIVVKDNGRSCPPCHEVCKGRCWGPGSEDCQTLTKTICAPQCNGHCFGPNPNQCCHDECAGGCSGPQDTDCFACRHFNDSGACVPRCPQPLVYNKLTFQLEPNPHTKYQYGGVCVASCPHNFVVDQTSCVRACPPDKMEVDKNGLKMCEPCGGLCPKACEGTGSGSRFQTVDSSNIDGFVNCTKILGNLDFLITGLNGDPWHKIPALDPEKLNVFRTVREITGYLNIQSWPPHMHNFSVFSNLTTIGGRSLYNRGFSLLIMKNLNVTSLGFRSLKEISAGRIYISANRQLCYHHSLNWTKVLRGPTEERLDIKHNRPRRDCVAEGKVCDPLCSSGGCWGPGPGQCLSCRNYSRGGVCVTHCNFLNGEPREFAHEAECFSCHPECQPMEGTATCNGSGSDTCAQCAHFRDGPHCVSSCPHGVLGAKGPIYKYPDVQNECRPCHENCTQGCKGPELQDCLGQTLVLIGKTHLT
T1 sequence (P01857 99-330 partner limits assumed): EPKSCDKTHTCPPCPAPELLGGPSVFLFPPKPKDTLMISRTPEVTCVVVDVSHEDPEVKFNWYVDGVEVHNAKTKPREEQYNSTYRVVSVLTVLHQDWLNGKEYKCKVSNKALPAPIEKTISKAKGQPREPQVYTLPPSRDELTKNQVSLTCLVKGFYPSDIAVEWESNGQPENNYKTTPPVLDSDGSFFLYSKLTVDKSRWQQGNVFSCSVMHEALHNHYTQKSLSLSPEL
Method: FIGS. 12A-D show a combination of two mAbs directed to two different epitopes of HER3. (FIGS. 12A and 12B) The antibodies NG33 and XC252 were labeled with the fluorescent dye Lumi4® Tb Cryptate (K2). 96 well-plate were coated with IgB3 (1.5 μg/ml), blocked with PBS-BSA and incubated for 1 h with various concentrations of mAbs under gentle shaking at RT. The labeled mAb, NG33-K2 (FIG. 12A) or XC252-K2 (FIG. 12B), was then added at 1 nM final concentration. After ah incubation, the plate was washed 4 times with KREBS buffer, and the fluorescence intensity at 610 nm was measured using a fluorescence microplate reader. (FIG. 12C) The various anti-HER3 mAb combinations were studied for their ability to trigger HER3 degradation using N87 cells. Cells were treated for 2 h at 37° C. with mAb (10 μg/ml). After cell lysis and protein extraction, the samples were subjected to immunoblotting with the indicated antibodies. (FIG. 12D) The combination's capacity to modulate NRG-induced phosphorylation of HER3, AKT and ERK was evaluated using N87 cells. After 20 min treatment at 37° C. with 10 μg/ml of mAbs, NRG (20 ng/ml) was added to the cells for 10 min. The cells were then lysed, and equal quantities of lysate protein were electrophoresed before immunoblotting, as indicated.
Agent labeling was performed by Cisbio. […] Following 1 h incubation, the plate was washed 4 times with KREBS buffer (146 mM NaCl, 4 mM KCl, 0.5 mM MgCl2, 1 mM CaCl2, 10 mM Hepes, 1 gr/L glucose, and 1 mg/mL albumin), and the fluorescent intensity (excitation: 488 nm, emission: 610 nm) was measured using a fluorescence microplate reader. […] Finally, following two washes with KREBS buffer, the fluorescence intensity was measured at 670 nm (excitation: 620 nm).
Combinations of antibodies directed against two different epitopes of the same receptor, as has been previously shown, can improve the effect of treatment with a single mAb (28, 29). […] First, it was determined which antibody from the anti-HER3 series targets an epitope distinct from that targeted by NG33. […]

| Molecule | survival / sensitivity of PC9ER-AZDR cells (MTT) [1] | inhibition of H1975 tumor growth ([2]; AZD9291 5 mg/kg/day or triple mAbs) | body weight gain ([2]; H1975 tumor-bearing mice, AZD9291 5 mg/kg/day) | EGFR phosphorylation in PC9ER-AZDR cells on exposure [3] | effect on BxPC3 proliferation/survival (in words) [4] | effect on BxPC3 xenograft tumor growth [5] | effect on binding of Lumi4(Tb)-labeled NG33 to IgB3 [6] |
| --- | --- | --- | --- | --- | --- | --- | --- |
| C=CC(=O)Nc1cc(Nc2nccc(-c3cn(C)c4ccccc34)n2)c(OC)cc1N(C)CCN(C)C [AZD-9291] | lost sensitivity to AZD-9291 | comparably inhibited growth of the erlotinib-resistant human NSCLC | slightly inhibited body weight gain compared with the triple mAb combination | EGFR remained phosphorylated |  |  |  |
| B1 |  |  |  |  | did not interfere with cell proliferation | no statistically significant ability to decrease tumor growth | did not alter NG33 binding |
